Experimental data as given in patent US20170119806A1, “[…] LACTONE DERIVATIVES AND METHODS OF MAKING AND USING THEREOF” (OHIO STATE INNOVATION FOUNDATION, priority 2014, published 2017).
“Also recorded” adds a separate entry of the source.

How the values were obtained:
TLR1 or TLR6 = test: TLR activation assessment (NF-κB luciferase reporter in HEK293T); assay type: cell-based, human; conditions: various concentrations of PL-C, 24 h
[1] = tested on: purified primary NK cells or NKL cells; test: Real-time RT-PCR of mRNA in NK cells; assay type: cell-based, human; conditions: 10 μM PL-C, 12 h
Method: (A) Chemical structure of PL-C (phyllanthusmin C, 4), (9) Healthy donor PBMCs (left panel) or enriched NK cells (right panel) were treated with DMSO vehicle control or 10 μM PL-C for 18 h in the presence of […] (10 ng/mL) or IL-15 (100 ng/mL). The cells were harvested and analyzed by intracellular flow cytometry to determine the frequency of IFN-γ^+ cells in CD56^+CD3^− NK cells (n=8 for PBMC and n=5 for enriched NK). (C) Highly purified (≧99.5%) human primary NK cells were treated with 10 μM PL-C for 18 h to determine the levels of IFN-γ secretion by ELISA. IFN-γ secretion from treatment with PL-C alone (left panel) or in combination with IL-12 (10 ng/mL, middle panel) or IL-15 (100 ng/mL, right panel) is shown. (D) Cells were treated as described in (C) and harvested at 12 h, IFNG mRNA expression was assessed by real-time RT-PCR, and the relative IFNG mRNA expression of each treatment was normalized to untreated vehicle control in the same donor. Data are shown as mean±SEM (n=6 in each treatment; error bars represent SEM). *p<0.05, **p<0.01, which denote statistical comparison between the two marked treatment groups (B-D). (E) Highly purified (≧99,5%) primary human NK cells were treated with 10 μM. PL-C in combination with various concentrations of IL-12 (10, 1, and 0.1 ng/mL) or IL-15 (100, 10, and 1 ng/mL) for 24 h to determine the levels of IFN-γ secretion. Representative data from one of three donors with the similar data are shown. *p<0.05, **p<0.01, which denote statistical comparison between the two marked treatment groups and are calculated from data of all tested donors. Error bars represent SD. […]
(A) Human […] were treated with DMSO vehicle control or 10 μM PL-C for 18 hours in the presence of IL-12 (10 ng/mL) or IL-15 (100 ng/mL), as described in FIG. 37C. […] (B) Purified primary NK cells were treated with IL-12 (10 ng/mL) or IL-15 (100 ng/mL) with or without 10 μM PL-C for 8 hours and were sequentially co-cultured with […] labeled ARH-77 cells at various effector/target cell ratios for additional 4 hours. ^51Cr release was measured by a TopCount counter. […]

[2] = tested on: primary NK cells cocultured with ARH-77 target cells; test: NK cell cytotoxicity assay (51Cr release); assay type: cell-based, human; conditions: 10 μM PL-C 8 h, then 4 h coculture, with IL-12 or IL-15; listed as PL-C
Method: (A) Human […] were treated with DMSO vehicle control or 10 μM PL-C for 18 hours in the presence of IL-12 (10 ng/mL) or IL-15 (100 ng/mL), as described in FIG. 37C. The cells were harvested for intracellular flow cytometry to determine the frequency of IFN-γ^+ cells in CD56^−CD3^+[…] or CD56^−CD3^+CD8^+T. Representative data from 1 out of 5 donors are shown. (B) Purified primary NK cells were treated with IL-12 (10 ng/mL) or IL-15 (100 ng/mL) with or without 10 μM PL-C for 8 hours and were sequentially co-cultured with […] labeled ARH-77 cells at various effector/target cell ratios for additional 4 hours. ^51Cr release was measured by a TopCount counter. Data shown are the means of 3 donors. […] Error bars represent S.D. (C) Purified primary NK cells were treated with 10 μM PL-C in the presence of IL-12 (10 ng/mL) (top) or IL-15 (100 ng/mL) (bottom) for 12 hours, and cell pellets were harvested for detecting granzyme A (GZMA), granzyme B (GZMB), perforin (PRF1) and Fas (Fasl) mRNA expression level by real-time RT-PCR. Data shown are the means of 6 donors. p>0.05, vehicle control versus PL-C in all panels. Error bars represent S.D.
Cytotoxicity assay. Cytotoxicity assay was performed as described previously (Yu J et al. Immunity 2006, 24, 575-590; Yu J et al. Blood 2010, 115, 274-281). […] The release of ^51Cr was counted on a TopCount counter (Canberra Packard, Meriden, Conn.). […]

[3] = tested on: HT-29 human colon cancer cells; test: Cytotoxicity against HT-29 cells; conditions: read-out: IC50 values toward the HT-29 cells; Table 6; triplicate, two independent experiments

COc1cc2c(OC3OCC(O)C(O)C3O)c3c(c(-c4ccc5c(c4)OCO5)c2cc1OC)C(=O)OC3 (stereo not drawn) [Compound 4, Phyllanthusmin C]
NF-κB luciferase reporter activity in TLR1- or TLR6-transfected 293T cells (TLR1 or TLR6): induce luciferase reporter activity in a dose-dependent fashion | IFNG mRNA expression in NK cells ([1]; alone or with IL-12 or IL-15): induced IFN-γ gene (IFNG) expression at the transcriptional level | mRNA expression of IL-12R and IL-15R chains ([1]; cotreated with IL-12): downregulated mRNA expression of IL-12Rβ1, IL-12Rβ2, and IL-15Rα | expression of cytotoxicity-associated genes (granzyme A, granzyme B, perforin, Fas ligand) ([1]; with IL-12 or IL-15): unaffected | NK cell cytotoxicity [2]: no statistically significant difference; also recorded: little or no; also recorded: did not activate NK cell cytotoxicity; also recorded: limited effect on NK cytotoxicity | IC50 [3]: 3.2 µM
